What was measured:
bedstraw = experiment: Test B pre/postemergence bedstraw; type: in vivo, Galium aparine
How it was run: (§1)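 Response is a visual 0-to-10 score relative to untreated plants, where 0 means no effect and 10 means complete control, taken twelve to sixteen days after application. Treatments went onto soil at planting and onto foliage of 1- to 4-leaf plants, using a surfactant-containing non-phytotoxic solvent.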

bamyardgrass = experiment: Test B flood test barnyardgrass; type: in vivo, Echinochloa crus-galli
How it was run: (§2)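 Read-out is a visual response score from 0 (no effect) to 10 (complete control), assigned by comparison with untreated controls. Treatment was applied at the 2-leaf stage, and plants stayed in the greenhouse for twelve to sixteen days before scoring.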

soybean = experiment: Test B pre/postemergence soybean; type: in vivo, Glycine max
How it was run: as §1

morningglory = experiment: Test B pre/postemergence morningglory; type: in vivo, Ipomoea hederacea
How it was run: as §1

rice = experiment: Test B flood test rice; type: in vivo, Oryza sativa
How it was run: as §2

surinam grass = experiment: Test B pre/postemergence surinam grass; type: in vivo, Brachiaria decumbens
How it was run: as §1

crabgrass = experiment: Test B pre/postemergence crabgrass; type: in vivo, Digitaria sanguinalis
How it was run: as §1

rape = experiment: Test B pre/postemergence rape; type: in vivo, Brassica napus
How it was run: as §1

cocklebur = experiment: Test B pre/postemergence cocklebur; type: in vivo, Xanthium strumarium
How it was run: as §1

velvetleaf = experiment: Test B pre/postemergence velvetleaf; type: in vivo, Abutilon theophrasti
How it was run: as §1

pigweed = experiment: Test B pre/postemergence pigweed; type: in vivo, Amaranthus retroflexus
How it was run: as §1

sugar beet = experiment: Test B pre/postemergence sugar beet; type: in vivo, Beta vulgaris
How it was run: as §1

wild oat = experiment: Test B pre/postemergence wild oat; type: in vivo, Avena fatua
How it was run: as §1

corn = experiment: Test B pre/postemergence corn; type: in vivo, Zea mays
How it was run: as §1

smallflower flatsedge = experiment: Test B flood test smallflower flatsedge; type: in vivo, Cyperus difformis
How it was run: as §2

duck salad = experiment: Test B flood test duck salad; type: in vivo, Heteranthera limosa
How it was run: as §2

[1] = Preemergence, Rate 62 g/ha, scale of 0 to 10 where 0 is no effect and 10 is complete control
[2] = Preemergence, Rate 250 g/ha, scale of 0 to 10 where 0 is no effect and 10 is complete control
[3] = Preemergence, Rate 500 g/ha, scale of 0 to 10 where 0 is no effect and 10 is complete control
[4] = Rate 62 g/ha, Postemergence, scale 0 to 10 (0 no effect, 10 complete control)
[5] = Rate 125 g/ha, Postemergence, scale of 0 to 10 where 0 is no effect and 10 is complete control
[6] = Rate 125 g/ha, Preemergence, scale of 0 to 10 where 0 is no effect and 10 is complete control
[7] = Rate 250 g/ha, Postemergence, scale of 0 to 10 where 0 is no effect and 10 is complete control
[8] = Rate 500 g/ha, Postemergence, scale 0 to 10, 0 no effect, 10 complete control
[9] = Rate 62 g/ha, headed Pre-emergence (flood test species), scale 0 to 10 (0 no effect, 10 complete control)
[10] = Rate 125 g/ha, Pre-emergence, flood test species, scale 0 to 10 where 0 is no effect and 10 is complete control
[11] = Rate 250 g/ha, Pre-emergence, flood-test species, scale 0 to 10, 0 is no effect, 10 is complete control
[12] = Rate 500 g/ha, Pre-emergence, flood test species, scale 0 to 10 (0 no effect, 10 complete control)

COCn1c(=O)on(C(=O)N(c2ccc(F)cc2)C(C)C)c1=O [Compound 293]
Bedstraw plant response rating (bedstraw; [1]): 0
Bedstraw plant response rating (bedstraw; [2]): 0
Plant response rating, Bedstraw (bedstraw; [3]): 0
Bedstraw plant response rating (bedstraw; [4]): 0
Bedstraw plant response rating (bedstraw; [5]): 2
Bedstraw plant response rating (bedstraw; [6]): 0
Plant response rating, Bedstraw (bedstraw; [7]): 3
Bedstraw plant response rating (bedstraw; [8]): 9
Barnyardgrass plant response rating (bamyardgrass; [9]): 0
Barnyardgrass plant response rating (bamyardgrass; [10]): 0
Barnyardgrass plant response rating (bamyardgrass; [11]): 0
Barnyardgrass plant response rating (bamyardgrass; [12]): 5
Soybean plant response rating (soybean; [1]): 0
Soybean plant response rating (soybean; [2]): 2
Plant response rating, Soybean (soybean; [3]): 2
Soybean plant response rating (soybean; [4]): 1
Soybean plant response rating (soybean; [5]): 2
Soybean plant response rating (soybean; [6]): 0
Plant response rating, Soybean (soybean; [7]): 2
Morningglory plant response rating (morningglory; [1]): 0
Morningglory plant response rating (morningglory; [2]): 0
Plant response rating, Morningglory (morningglory; [3]): 4
Morningglory plant response rating (morningglory; [4]): 1
Morningglory plant response rating (morningglory; [5]): 5
Morningglory plant response rating (morningglory; [6]): 0
Plant response rating, Morningglory (morningglory; [7]): 5
Rice plant response rating (rice; [9]): 0
Rice plant response rating (rice; [10]): 0
Rice plant response rating (rice; [11]): 3
Rice plant response rating (rice; [12]): 5
B. signalgrass plant response rating (surinam grass; [1]): 2
B. signalgrass plant response rating (surinam grass; [2]): 7
Plant response rating, B. signalgrass (surinam grass; [3]): 9
B. signalgrass plant response rating (surinam grass; [4]): 0
B. signalgrass plant response rating (surinam grass; [5]): 0
B. signalgrass plant response rating (surinam grass; [6]): 3
Plant response rating, B. signalgrass (surinam grass; [7]): 7
B. signalgrass plant response rating (surinam grass; [8]): 7
Crabgrass plant response rating (crabgrass; [1]): 1
Crabgrass plant response rating (crabgrass; [2]): 8
Plant response rating, Crabgrass (crabgrass; [3]): 8
Crabgrass plant response rating (crabgrass; [4]): 6
Crabgrass plant response rating (crabgrass; [5]): 8
Crabgrass plant response rating (crabgrass; [6]): 3
Plant response rating, Crabgrass (crabgrass; [7]): 9
Rape plant response rating (rape; [1]): 0
Rape plant response rating (rape; [2]): 8
Plant response rating, Rape (rape; [3]): 10
Rape plant response rating (rape; [4]): 0
Rape plant response rating (rape; [5]): 0
Rape plant response rating (rape; [6]): 6
Plant response rating, Rape (rape; [7]): 0
Cocklebur plant response rating (cocklebur; [1]): 0
Cocklebur plant response rating (cocklebur; [2]): 0
Plant response rating, Cocklebur (cocklebur; [3]): 0
Cocklebur plant response rating (cocklebur; [4]): 0
Cocklebur plant response rating (cocklebur; [5]): 0
Cocklebur plant response rating (cocklebur; [6]): 0
Plant response rating, Cocklebur (cocklebur; [7]): 0
Cocklebur plant response rating (cocklebur; [8]): 0
Velvetleaf plant response rating (velvetleaf; [1]): 4
Velvetleaf plant response rating (velvetleaf; [2]): 7
Plant response rating, Velvetleaf (velvetleaf; [3]): 8
Velvetleaf plant response rating (velvetleaf; [4]): 0
Velvetleaf plant response rating (velvetleaf; [5]): 2
Velvetleaf plant response rating (velvetleaf; [6]): 4
Plant response rating, Velvetleaf (velvetleaf; [7]): 2
Redroot pigweed plant response rating (pigweed; [1]): 6
Redroot pigweed plant response rating (pigweed; [2]): 10
Plant response rating, Redroot pigweed (pigweed; [3]): 10
Redroot pigweed plant response rating (pigweed; [4]): 0
Redroot pigweed plant response rating (pigweed; [5]): 2
Redroot pigweed plant response rating (pigweed; [6]): 8
Plant response rating, Redroot pigweed (pigweed; [7]): 2
Sugarbeets plant response rating (sugar beet; [1]): 0
Sugarbeets plant response rating (sugar beet; [2]): 4
Plant response rating, Sugarbeets (sugar beet; [3]): 8
Sugarbeets plant response rating (sugar beet; [4]): 0
Sugarbeets plant response rating (sugar beet; [5]): 0
Sugarbeets plant response rating (sugar beet; [6]): 4
Plant response rating, Sugarbeets (sugar beet; [7]): 3
Wild oats plant response rating (wild oat; [1]): 1
Wild oats plant response rating (wild oat; [2]): 8
Plant response rating, Wild oats (wild oat; [3]): 9
Wild oats plant response rating (wild oat; [4]): 0
Wild oats plant response rating (wild oat; [5]): 0
Plant response rating, Wild oats (wild oat; [7]): 3
Corn plant response rating (corn; [1]): 0
Corn plant response rating (corn; [2]): 9
Corn plant response rating (corn; [4]): 0
Corn plant response rating (corn; [5]): 0
Corn plant response rating (corn; [6]): 0
Plant response rating, Corn (corn; [7]): 0
Corn plant response rating (corn; [8]): 3
S. Flatsedge plant response rating (smallflower flatsedge; [9]): 0
S. Flatsedge plant response rating (smallflower flatsedge; [10]): 0
S. Flatsedge plant response rating (smallflower flatsedge; [11]): 0
S. Flatsedge plant response rating (smallflower flatsedge; [12]): 0
Ducksalad plant response rating (duck salad; [9]): 0
Ducksalad plant response rating (duck salad; [10]): 0
Ducksalad plant response rating (duck salad; [11]): 0
Ducksalad plant response rating (duck salad; [12]): 0

Reference: patent US6737383B1, “Herbicidal oxadiazolidines” (priority 1999, dated 2004)
